Some test systems named below: MDA-MB-468 breast; 786-0 renal; A498 renal; ACHN renal; DU-145 prostate; EKVX NSCLC; HCC-2998 colon; HCT-15 colon; HS 578T breast; KM12 colon; MALME-3M melanoma; MCF7 breast; MDA-MB-231 breast; NCI-H226 lung; NCI-H23 lung; OVCAR-3 ovarian; OVCAR-4 ovarian; OVCAR-5 ovarian; OVCAR-8 ovarian; RXF 393 renal; SK-MEL-2 melanoma; SK-MEL-5 melanoma; SK-OV-3 ovarian; SNB-19 CNS; SNB-75 CNS; SW-620 colon; T-47D breast; TK-10 renal; UO-31 renal.

Assay in all cases: NCI anticancer screen, dose series, 48 h

Molecules are shown by their SMILES.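 Compound exposure: 48 hours, 5 concentrations, 96-well plates. GI50 is the concentration that inhibits growth by half. TGI: total growth inhibition.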

On to `CCc1ccc(Nc2cc(C)c3ccc(O)cc3n2)cc1`, for which, in the experiment with MDA-MB-468 breast, the GI50 is 3.57 µM and the TGI was found to be 12.8 µM.
For `Cn1ccnc1C(=O)/C=C/C=C/c1ccc(C(=O)Nc2ccc(F)cc2)cc1`, in that order: 1.51 µM and 10.5 µM.
For `C#Cc1ccc(-n2c(/C=C/c3ccc(O)cc3)nc3ncccc3c2=O)cc1` the same measures were 2.31 µM and 7.08 µM.
For `COc1cc(-c2nccc3[nH]c(-c4ccc5cc[nH]c5c4)nc23)cc(OC)c1OC`, in that order: 0.0176 µM and 1.56 µM.
Consider `COc1ccc2c(c1)c(/C=N/Nc1ccnc3cc(Cl)ccc13)cn2C`, for which, in the experiment on MDA-MB-468 breast, the GI50 was 0.217 µM and the TGI was found to be 0.456 µM.
For `CN1CCN(c2c(F)cc(NC3=C(Cl)C(=O)c4ncccc4C3=O)cc2F)CC1` the same measures were 1.36 µM and 3.21 µM.
Take `COc1ccc(-c2[nH]c3ccc(OC)cc3c2C=C(C#N)C#N)cc1`: in the experiment on MDA-MB-468 breast, the GI50 was 0.494 µM and the TGI was greater than 100 µM.
For `CCCCCCCCCCCCCCNC(=O)Nc1ccc(Cl)c(Cl)c1`, in that order: 2.82 µM and 9.82 µM.
For `CC[C@H](C)[C@H](NC(=O)[C@H]1CCCCN1C)C(=O)N(C)[C@H](C[C@@H](OC(C)=O)c1nc(C(=O)NC23CC(C(=O)OC)(C2)C3)cs1)C(C)C` the same measures were 0.000292 µM and 0.0714 µM.
For `CC(=O)Oc1ccc(C2=Cc3ccc(OC(C)=O)cc3OC2C)cc1` (centres undefined), in that order: 5.96 µM and 51.4 µM.
For `COc1ccc(-c2nc3ccc(Cc4ccc5nc(-c6ccc(OC)cc6)[nH]c5c4)cc3[nH]2)cc1`, in the experiment with MDA-MB-468 breast, the GI50 is 0.026 µM and the TGI came to 0.155 µM.
Consider `ClCCOCCn1cnc2c(Cl)nc(Cl)nc21`, for which, in the experiment with MDA-MB-468 breast, the GI50 is 3.16 µM and the TGI stood at 25 µM.
For `O=C1c2cc3c(cc2-c2c1c1ccc(Cl)cc1c(=O)n2C[C@H](O)CO)OCO3`, in that order: 0.0174 µM and 0.0553 µM.
For `COc1ccc(C(O)c2cc3c(N)c(C(=O)Nc4cccc5ccccc45)sc3nc2C)cc1` (centres undefined) the same measures were 2.64 µM and greater than 100 µM.
With `COc1cccc2nc(Nc3cccc(NC(=O)c4ccc(CN5CCCN(C)CC5)c(C(F)(F)F)c4)c3)ccc12`, the GI50 is 1.72 µM in the experiment with 786-0 renal; 13.5 µM with A498 renal; 1.87 µM in the experiment on ACHN renal; 2.19 µM in the experiment with DU-145 prostate; 1.72 µM in the experiment with EKVX NSCLC; 1.71 µM in the experiment with HCC-2998 colon. For the same molecule, the GI50 with HCT-15 colon was 1.62 µM; in the experiment on HS 578T breast it was 2.46 µM; with KM12 colon, 2.49 µM; in the experiment with MALME-3M melanoma, 1.72 µM; with MCF7 breast, 1.59 µM; in the experiment with MDA-MB-231 breast it was 1.83 µM. Besides, the GI50 with MDA-MB-468 breast is 1.56 µM; in the experiment on NCI-H226 lung, 1.94 µM; in the experiment with NCI-H23 lung, 1.68 µM; in the experiment on OVCAR-3 ovarian, 2.14 µM; in the experiment on OVCAR-4 ovarian it was 2.67 µM; in the experiment with OVCAR-5 ovarian it was 1.71 µM. Besides, the GI50 with OVCAR-8 ovarian was 2.03 µM; in the experiment on RXF 393 renal, 1.66 µM; with SK-MEL-2 melanoma, 2.15 µM; with SK-MEL-5 melanoma, 1.71 µM; in the experiment on SK-OV-3 ovarian it was 4.33 µM; with SNB-19 CNS it was 1.72 µM. Further, the GI50 is 1.52 µM with SNB-75 CNS; 1.75 µM with SW-620 colon; 5.43 µM in the experiment on T-47D breast; 4.91 µM in the experiment with TK-10 renal; 1.74 µM in the experiment on UO-31 renal. Further, the TGI with 786-0 renal was determined as 3.35 µM; with A498 renal it was 31.4 µM; with ACHN renal it was 3.62 µM; in the experiment with DU-145 prostate, 4.91 µM; in the experiment on EKVX NSCLC it was 3.1 µM; in the experiment with HCC-2998 colon, 3.09 µM. For the same molecule, the TGI in the experiment with HCT-15 colon amounted to 3.03 µM; with HS 578T breast it was 8.09 µM; in the experiment on KM12 colon it was 6.14 µM; with MALME-3M melanoma, 3.12 µM; in the experiment with MCF7 breast, 3 µM; with MDA-MB-231 breast, 3.4 µM. Also, the TGI worked out at 2.98 µM in the experiment on MDA-MB-468 breast; 4.65 µM in the experiment with NCI-H226 lung; 3.07 µM in the experiment on NCI-H23 lung; 5.45 µM in the experiment with OVCAR-3 ovarian; 10.7 µM with OVCAR-4 ovarian; 3.29 µM in the experiment on OVCAR-5 ovarian. Further, the TGI came to 4.75 µM with OVCAR-8 ovarian; 3.24 µM in the experiment with RXF 393 renal; 4.93 µM in the experiment with SK-MEL-2 melanoma; 3.08 µM in the experiment on SK-MEL-5 melanoma; 21.3 µM in the experiment on SK-OV-3 ovarian; 3.17 µM with SNB-19 CNS. Also, the TGI with SNB-75 CNS is 7.97 µM; in the experiment with SW-620 colon it was 3.24 µM; with T-47D breast, 41.4 µM; in the experiment with TK-10 renal, 19.3 µM; in the experiment with UO-31 renal, 3.43 µM.
Regarding `CCN(CC)c1ccc2nc3ccc(=[N+](CC)CC)cc-3oc2c1`, in the experiment on MDA-MB-468 breast, the GI50 was 0.0631 µM and the TGI turned out to be 0.231 µM.
For `Nc1nc(=S)c2ncn(C3OC(COP(=O)(O)O)C(O)C3O)c2[nH]1` (centres undefined) the same measures were 0.478 µM and 6.3 µM.
For `CNCc1ccc(-c2cc(-c3nc(-c4ccc(S(=O)(=O)C(C)C)cc4)cnc3N)on2)cc1` the same measures were 2.26 µM and 20.3 µM.
For `COc1cc2nnc3c4cccnc4[nH]c3c2cc1OC` the same measures were 0.225 µM and 1.22 µM.
`COc1ccccc1C1c2cc3c(cc2OC2(OC)COC(=O)C12)OCO3` (centres undefined): in the experiment with MDA-MB-468 breast, the GI50 is 20.2 µM and the TGI was determined as 95.4 µM.
For `CCC(c1ccccc1)c1noc(CCN(CC)CC)n1` (centres undefined), in that order: 2.46 µM and 8.05 µM.
As for `Fc1ccc(NC(c2ccc(F)cc2)C2CCN(CCCCc3ccccc3)CC2)cc1` (centres undefined), in the experiment on MDA-MB-468 breast, the GI50 was 1.72 µM and the TGI came out at 3.43 µM.
For `CCNC(=O)N1CCc2cc(OC)c(OCCc3ccc(OC)cc3)cc2C1c1ccc(Cl)cc1C` (centres undefined), in that order: 2.01 µM and 6.43 µM.
For `COc1ccc(-c2cc(/C=C/C(=O)c3ccc(N)cc3)[nH]n2)cc1OC` the same measures were 1.55 µM and 3.48 µM.
For `CCSCC1CC(O)(c2ccccc2)C(c2ccccc2)C(c2ccc(F)cc2)O1` (centres undefined) the same measures were 2.94 µM and 10.4 µM.
As to `O=C(Nc1ccc(OC(F)(F)Cl)cc1)c1cnc(N2CC[C@@H](O)C2)c(-c2ccn[nH]2)c1`, in the experiment with MDA-MB-468 breast, the GI50 is 4.89 µM and the TGI was 23.1 µM.
For `CC(C)[C@@H]1CC[C@]2(CO2)[C@@H]2C(=O)OCC(C(=O)O)=C[C@H]21`, in that order: 0.443 µM and greater than 27.2 µM.
For `Cc1cc(Cl)nc(N(CCNc2ccnc3cc(Cl)ccc23)Cc2ccco2)n1` the same measures were 1.62 µM and 3.46 µM.
For `COc1ccc(/C=C2\CCC/C(=C\c3ccc(OC)c(OC)c3)C2=O)cc1OC` the same measures were 0.94 µM and 5.47 µM.
For the molecule `COCCN(Cc1ccc(F)cc1)c1ccc(CO)c(Cl)c1`, in the experiment on MDA-MB-468 breast, the GI50 was 0.0406 µM and the TGI is 0.163 µM.
Take `Nc1nccc(-c2c(-c3ccc(F)cc3)nn3cc(C(F)(F)F)ccc23)n1`: in the experiment with MDA-MB-468 breast, the GI50 was greater than 25 µM and the TGI was greater than 25 µM.
`Cc1cnc(C(=O)NNc2nc3sc4c(c3c(=O)[nH]2)C(C)CCC4)cn1` (centres undefined): in the experiment on MDA-MB-468 breast, the GI50 is 1.81 µM and the TGI came to 6.08 µM.
For `Cc1cc(Br)c(NC(=O)c2c(-c3c(Cl)cccc3Cl)noc2C)c(Br)c1` the same measures were greater than 100 µM and greater than 100 µM.
For `CCCCS(=O)c1sc2nc(-c3cccs3)cc(-c3ccccc3)c2c1N` (centres undefined), in that order: 9.93 µM and 67.3 µM.
For `Cc1cccc(Cn2cc(CO)c3cnccc32)c1`, in that order: 6.34 µM and 43.3 µM.
As for `Clc1ccc2oc3c(NCCCn4ccnc4)c4ccccc4nc3c2c1`, in the experiment with MDA-MB-468 breast, the GI50 was 14.7 µM and the TGI amounted to 69.2 µM.
For `CCCCCC(=O)O[C@]1(C(C)=O)CCC2C3CCC4=CC(=O)CC[C@]4(C)C3CC[C@@]21C` (some centres undefined) the same measures were 1.73 µM and 6.79 µM.
For `COc1cc(/C=C/c2cc(/C=C/c3ccc(O)c(OC)c3)n(C(=O)c3ccccc3Br)n2)ccc1O`, in that order: 2.24 µM and 5.81 µM.
For `COc1ccccc1Oc1nccc(-c2c(-c3ccc(F)cc3)ncn2C2CCNCC2)n1`, in that order: 3.17 µM and 14.3 µM.
As for `S=C1SCN(Cc2ccccc2)CN1Cc1ccco1`, in the experiment on MDA-MB-468 breast, the GI50 was 1.04 µM and the TGI was 13.5 µM.
For `COc1ccccc1CNCCN1C(=O)c2ccc3c4c(ccc(c24)C1=O)C(=O)N(CCNCc1ccccc1OC)C3=O` the same measures were 0.426 µM and 0.893 µM.
Turning to `CC(=O)NC1C(O[C@H]2C[C@H]3[C@@H]4CC=C5C[C@@H](O)CC[C@]5(C)[C@H]4CC[C@]3(C)[C@H]2[C@H](C)C(=O)CCC(C)C)OCC(O)C1O` (some centres undefined), in the experiment with MDA-MB-468 breast, the GI50 was 3.34 µM and the TGI is 10.4 µM.
For `O=C(COc1ccc(/C=C2\Oc3ccccc3C2=O)cc1)Nc1nc2ccccc2s1` the same measures were 0.487 µM and 75.2 µM.
As to `COCCOC1=C(Cl)C(=O)c2ccccc2C1=O`, in the experiment on MDA-MB-468 breast, the GI50 was 1.59 µM and the TGI worked out at 3.22 µM.

Values taken from PubChem BioAssay (NCI).
